From patent US20040059104A1, “Nucleotide mimics and their prodrugs” (priority 2002, published 2004)
Like-named read-outs stand apart in the source and are kept apart here.

How the values were obtained:
CEM cells = experiment: Cell uptake procedure (intracellular nucleotide levels by HPLC); format: cell-based, Human; conditions: 24 hour incubation, limit of detection about 5 pmol/10^6 cells
Procedure: CEM cells were resuspended in RPMI at 1×10^7 cells/mL. The appropriate amount of each compound was added to well and then 0.5 ml of the cells was aliquoted into the appropriate number of wells of a 24-well plate and incubated the cells at 37° C. Cells were harvested after 24 hours of incubation. To harvest cells they were transferred to a microfuge tube and spun for one minute at high speed. The samples were washed in PBS containing 1 mg/ml BSA and re-centrifuged. The PBS was then aspirated and 200 μL of ice-cold 60% methanol was added to extract the nucleotides. The extracts were incubated overnight at −20° C. The next day the samples were spun at high speed in a microfuge for 20 minutes and the supernatant transferred to clean tubes and dried in the speed vac. After drying the samples were resuspended in 50 μl, filtered, and the samples then directly injected onto the HPLC. The nucleotides were analyzed using reverse phase HPLC with ion-pairing agents for separation of the nucleotides. The procedure was adapted from the following paper: Furman, et al., Proc. Natl. Acad. Sci. USA 1986, 83, 8333-8337.
The limit of detection was estimated to be 5 pmol/10^6 cells.

HIV-1RF = experiment: Anti-HIV-1 cytoprotection assay in CEM-SS cells; format: cell-based; conditions: Human immunodeficiency virus 1, 144 h; CEM-SS cells infected with HIV-1RF, MOI approximately 0.01, 6 days, MTS; read-out: CEM-SS IC50 (Anti-HIV Screening)
Procedure: ollowing paper: Structure-Activity and Cross-Resistance unodeficiency Virus Type 1-Specific ckheit, Jr. et al., Antimicrobial Agents and s were evaluated in CEM-SS cell cultures V-1RF at an MOI of approximately 0.01. At he soluble tetrazolium-based dye MTS viability and quantify compound toxicity of metabolically active cells to yield a soluble analysis of cell viability and compound
Efficacy Evaluation in CEM-SS Cells Anti-HIV-1 Cytoprotection Assay
Cell Preparation—CEM-SS cells were passaged in T-75 flasks prior to use in the antiviral assay. On the day preceding the assay, the cells were split 1:2 to assure they were in an exponential growth phase at the time of infection. Total cell and viability quantification was performed using a hemacytometer and trypan blue exclusion. Cell viability was greater than 95% for the cells to be utilized in the assay. The cells were resuspended at 5×10^4 cells/ml in tissue culture medium and added to the drug-containing microtiter plates in a volume of 50 μl.
Virus Preparation—The virus used for these tests was the lymphocytropic virus strain HIV-1RF. This virus was obtained from the NIH AIDS Research and Reference Reagent Program and was grown in CEM-SS cells for the production of stock virus pools. For each assay, a pre-titered aliquot of virus was removed from the freezer (−80° C.) and allowed to thaw slowly to room temperature in a biological safety cabinet. The virus was resuspended and diluted into tissue culture medium such that the amount of virus added to each well in a volume of 50 μl was the amount determined to give between 85 to 95% cell killing at 6 days post-infection.
At assay termination, the assay plates were stained with the soluble tetrazolium-based dye MTS (CellTiter Reagent Promega) to determine cell viability and quantify compound toxicity. MTS is metabolized by the mitochondrial enzymes of metabolically active cells to yield a soluble formazan product, allowing the rapid quantitative analysis of cell viability and compound cytotoxicity. […] At termination of the assay, 20 μL of MTS reagent was added per well. The microtiter plates were then incubated 4-6 hrs at 37° C. for the HIV cytoprotection assay; the incubation intervals were chosen based on empirically determined times for optimal dye reduction. Adhesive plate sealers were used in place of the lids, the sealed plate was inverted several times to mix the soluble formazan product and the plate was read spectrophotometrically at 490 nm with a Molecular Devices Vmax plate reader.

Escherichia coli = experiment: Antimicrobial assay, minimal inhibitory concentration; format: cell-based; conditions: Escherichia coli, read-out: E. coli MIC
in vitro = conditions: bovine, serum, Half-Life, Serum Half-Lives of NTPs and AZT Triphosphate Mimics

SMILES: [BH3-][P+](O)(OCC1OC(n2cc(C)c(=O)[nH]c2=O)CC1N=[N+]=[N-])OP(=O)(O)C(F)(F)P(=O)(O)O (single isomer, unassigned) [Compound 27-isomer 1, 3′-Azido-3′-deoxythymidine 5′-α-P-borano-β,γ-(difluoromethylene)triphosphate]
- Intracellular levels of 27 (CEM cells; incubation concentration 25 μM): BLD
- Intracellular levels of 27 (CEM cells; incubation concentration 50 μM): 5.6 pmol/10^6 cells
- Intracellular levels of 27 (CEM cells; incubation concentration 100 μM): 10.6 pmol/10^6 cells
- IC50 (HIV-1RF): 1640 nM
- MIC (Escherichia coli; overnight at 37° C., tested 0-200 μg/ml, NA = Not active): 60 µg/mL
- MIC (Escherichia coli; value in brackets beside the μg/ml value): 111 µM
- half-life at 500 μM (in vitro): > 48 h
